From US7772246B2 (Pfizer Inc., priority 2007, dated 2010)
Like-named read-outs stand apart in the source and are kept apart here.

Molecular target: T1, b-Raf (Homo sapiens, UniProt P15056, V600E)
T1 construct: endogenous in cells; host or cells: A2058 human melanoma cells
Test: Raf cellular assay (phospho-Mek1/2 ELISA in A2058 cells)
Format: cell-based
Details: human melanoma A2058 cells (b-Raf mutation), Mek1/2 Ser217/221 phosphorylation, 1 hour incubation, read-out: pMEK IC50
Method in brief: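 A2058 melanoma cells (B-Raf mutant), seeded overnight in 10% FBS DMEM, were exposed to compounds (11-point 1:3 series, duplicate) for 1 h at 37 °C. Lysates were captured on anti-Mek1-coated plates and Mek1/2 Ser217/221 phosphorylation was read by anti-phospho-Mek1/2 ELISA, HRP/TMB, 450 nm.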

T1 sequence (P15056 whole entry V600E): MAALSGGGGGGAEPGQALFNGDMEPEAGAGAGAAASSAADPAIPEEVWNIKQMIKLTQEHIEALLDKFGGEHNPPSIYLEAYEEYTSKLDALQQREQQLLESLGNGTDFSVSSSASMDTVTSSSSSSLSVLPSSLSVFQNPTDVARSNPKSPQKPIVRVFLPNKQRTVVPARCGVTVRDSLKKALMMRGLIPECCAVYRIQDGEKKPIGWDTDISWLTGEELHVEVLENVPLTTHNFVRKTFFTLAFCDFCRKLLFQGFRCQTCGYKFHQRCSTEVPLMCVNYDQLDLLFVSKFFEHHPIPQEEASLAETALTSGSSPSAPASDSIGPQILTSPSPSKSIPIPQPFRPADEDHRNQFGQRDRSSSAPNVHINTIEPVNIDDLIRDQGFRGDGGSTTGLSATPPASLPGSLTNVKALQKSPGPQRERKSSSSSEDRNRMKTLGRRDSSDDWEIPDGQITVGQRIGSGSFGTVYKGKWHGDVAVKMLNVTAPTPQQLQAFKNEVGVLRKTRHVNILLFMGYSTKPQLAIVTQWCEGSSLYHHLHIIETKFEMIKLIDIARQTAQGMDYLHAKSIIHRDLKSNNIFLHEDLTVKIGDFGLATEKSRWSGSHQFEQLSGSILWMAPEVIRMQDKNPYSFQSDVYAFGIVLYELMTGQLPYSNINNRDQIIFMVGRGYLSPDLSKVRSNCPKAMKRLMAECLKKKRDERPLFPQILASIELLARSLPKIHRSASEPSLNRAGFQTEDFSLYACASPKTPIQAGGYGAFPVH

Row | IC50 (Table 3) [nM] | IC50 (Table 2) [nM] | SMILES
1 | 18.7 |  | Cn1ccc2ncc(-c3nn(CC(F)F)cc3-c3ccnc(NCCC#N)n3)cc21 [Example B-38]
2 | 193 |  | C[C@H](O)CNc1nccc(-c2cn(CC(F)F)nc2-c2cnc3ccn(C)c3c2)n1 [Example B-35, (2S)-1-({4-[1-(2,2-difluoroethyl)-3-(1-methyl-1H-pyrrolo[3,2-b]pyridin-6-yl)-1H-pyrazol-4-yl]pyrimidin-2-yl}amino)propan-2-ol]
3 | 319 |  | CC(C)n1cc(-c2ccnc(NC[C@H](C)O)n2)c(-c2cnc(N)c(O)c2)n1 [Example B-45, 2-amino-5-[4-(2-{[(2S)-2-hydroxypropyl]-amino}pyrimidin-4-yl)-1-isopropyl-1H-pyrazol-3-yl]pyridin-3-ol]
4 | 146 |  | C[C@H](O)CNc1nccc(-c2cn(CC3(C)COC3)nc2-c2cnc3[nH]cc(Cl)c3c2)n1 [Example B-98, (2S)-1-[(4-{3-(3-chloro-1H-pyrrolo[2,3-b]pyridin-5-yl)-1-[(3-methyloxetan-3-yl)methyl]-1H-pyrazol-4-yl}pyrimidin-2-yl)amino]propan-2-ol]
5 | 66.3 |  | CC(C)n1cc(-c2ccnc3[nH]ccc23)c(-c2cnc3[nH]cc(Cl)c3c2)n1 [Example H-4, 3-chloro-5-(1-isopropyl-4-(1H-pyrrolo[2,3-b]pyridin-4-yl)-1H-pyrazol-3-yl)-1H-pyrrolo[2,3-b]pyridine]
6 | 1670 |  | N#CCCNc1nccc(-c2cn(CC(F)F)nc2-c2cnc3c(c2)CC(=O)N3)n1 [Example B-95, 3-(4-(1-(2,2-difluoroethyl)-3-(2-oxo-2,3-dihydro-1H-pyrrolo[2,3-b]pyridin-5-yl)-1H-pyrazol-4-yl)-pyrimidin-2-ylamino)propanenitrile]
7 | 30.4 |  | FC(F)CNc1nccc(-c2cn(C3CCNCC3)nc2-c2cnc3[nH]cc(Cl)c3c2)n1 [Example B-77, 4-[3-(3-chloro-1H-pyrrolo[2,3-b]pyridin-5-yl)-1-piperidin-4-yl-1H-pyrazol-4-yl]-N-(2,2-difluoroethyl)pyrimidin-2-amine]
8 | 144 |  | COCCCn1cc(-c2ccnc(NC[C@H](C)O)n2)c(-c2cnc3[nH]cc(Cl)c3c2)n1 [Example B-110, (2S)-1-({4-[3-(3-chloro-1H-pyrrolo[2,3-b]pyridin-5-yl)-1-(3-methoxypropyl)-1H-pyrazol-4-yl]pyrimidin-2-yl}amino)propan-2-ol]
9 | 12 |  | C[C@H](O)CNc1nccc(-c2cn(C3CCOCC3)nc2-c2cnc3[nH]cc(Cl)c3c2)n1 [Example B-76, (2S)-1-({4-[3-(3-chloro-1H-pyrrolo[2,3-b]pyridin-5-yl)-1-(tetrahydro-2H-pyran-4-yl)-1H-pyrazol-4-yl]pyrimidin-2-yl}amino)propan-2-ol]
10 | 284 |  | CC(C)(O)CNc1nccc(-c2cn(CC(F)F)nc2-c2cnc3c(c2)CCN3)n1 [Example B-89, 1-(4-(1-(2,2-difluoroethyl)-3-(2,3-dihydro-1H-pyrrolo[2,3-b]pyridin-5-yl)-1H-pyrazol-4-yl)pyrimidin-2-ylamino)-2-methylpropan-2-ol]
11 | 3.26 |  | CC(C)(CO)n1cc(-c2ccnc(NCCC#N)n2)c(-c2cnc3[nH]cc(F)c3c2)n1 [Example B-24, 3-({4-[3-(3-fluoro-1H-pyrrolo[2,3-b]pyridin-5-yl)-1-(2-hydroxy-1,1-dimethylethyl)-1H-pyrazol-4-yl]pyrimidin-2-yl}amino)propanenitrile]
12 | 21.9 |  | COc1cc(-c2nn([C@H]3C[C@H](F)C3)cc2-c2ccnc(NC[C@H](C)O)n2)cnc1N [Example B-85, (S)-1-(4-(3-(6-amino-5-methoxypyridin-3-yl)-1-((1r,3r)-3-fluorocyclobutyl)-1H-pyrazol-4-yl)pyrimidin-2-ylamino)propan-2-ol]
13 | 2.33 |  | COc1cc(-c2nn(C3CCOCC3)cc2-c2ccnc(NCC(F)F)n2)cnc1N [Example B-70, 4-[3-(6-amino-5-methoxypyridin-3-yl)-1-(tetrahydro-2H-pyran-4-yl)-1H-pyrazol-4-yl]-N-(2,2-difluoroethyl)-pyrimidin-2-amine]
14 | 86.2 |  | Cc1cc(-c2nn(C(C)(C)CO)cc2-c2ccnc(NCCC#N)n2)cnc1N [Example B-47, 3-({4-[3-(6-amino-5-methylpyridin-3-yl)-1-(2-hydroxy-1,1-dimethylethyl)-1H-pyrazol-4-yl]pyrimidin-2-yl}amino)-propanenitrile]
15 | 0.2 |  | COc1nc(-c2nn(C(C)(C)C)cc2-c2ccnc(NCCC#N)n2)cnc1N [Example B-30, 3-({4-[3-(5-amino-6-methoxypyrazin-2-yl)-1-tert-butyl-1H-pyrazol-4-yl]pyrimidin-2-yl}amino)propanenitrile]
16 | 4.29 |  | Cc1c[nH]c2ncc(-c3nn(CC(F)F)cc3-c3ccnc(NC[C@H](C)O)n3)cc12 [Example B-100, (2S)-1-({4-[1-(2,2-difluoroethyl)-3-(3-methyl-1H-pyrrolo[2,3-b]pyridin-5-yl)-1H-pyrazol-4-yl]pyrimidin-2-yl}amino)propan-2-ol]

Row | IC50 (Table 3) [nM] | IC50 (Table 2) [nM] | SMILES
17 |  | 8490 | Cc1cn2cc(-c3nn(C(C)C)cc3-c3ccnc(NC[C@H](C)O)n3)cnc2n1 [Example B-8, (2S)-1-(4-(1-isopropyl-3-(2-methylimidazo[1,2-a]pyrimidin-6-yl)-1H-pyrazol-4-yl)pyrimidin-2-ylamino)propan-2-ol]
18 | 280 |  | C[C@H](O)CNc1nccc(-c2cn(CC(F)F)nc2-c2cnc3c(c2)[C@@H](C)CN3)n1 [Example B-92, (S)-1-(4-(1-(2,2-difluoroethyl)-3-((R)-3-methyl-2,3-dihydro-1H-pyrrolo[2,3-b]pyridin-5-yl)-1H-pyrazol-4-yl)pyrimidin-2-ylamino)propan-2-ol]
19 | 107 |  | N#CCCNc1nccc(-c2cn(CC(F)F)nc2-c2cnc3c(ccn3CCC#N)c2)n1 [Example D-15]
20 | 2.98 |  | COc1cc(-c2nn(C3CCOCC3)cc2-c2ccnc(NCCC#N)n2)cnc1N [Example B-69, 3-({4-[3-(6-amino-5-methoxypyridin-3-yl)-1-(tetrahydro-2H-pyran-4-yl)-1H-pyrazol-4-yl]pyrimidin-2-yl}amino)propanenitrile]
21 | 67.3 |  | CCn1cc(-c2ccnc(NC[C@H](C)O)n2)c(-c2cnc3[nH]cc(Cl)c3c2)n1 [Example B-61, (2S)-1-({4-[3-(3-chloro-1H-pyrrolo[2,3-b]pyridin-5-yl)-1-ethyl-1H-pyrazol-4-yl]pyrimidin-2-yl}amino)propan-2-ol]
22 | 0.275 |  | Cc1c[nH]c2ncc(-c3nn(CC(F)F)cc3-c3ccnc(NCCC#N)n3)cc12 [Example B-93, 3-(4-(1-(2,2-difluoroethyl)-3-(3-methyl-1H-pyrrolo[2,3-b]pyridin-5-yl)-1H-pyrazol-4-yl)pyrimidin-2-ylamino)propanenitrile]
23 | 6.13 |  | COc1cc(-c2nn(C(C)C)cc2-c2ccnc(NC[C@H](C)O)n2)cnc1N [Example B-111, (2S)-1-({4-[3-(6-amino-5-methoxypyridin-3-yl)-1-isopropyl-1H-pyrazol-4-yl]pyrimidin-2-yl}amino)propan-2-ol]
24 | 184 |  | O=S(=O)(C1CC1)N1CCC(Nc2nccc(-c3cn(CC(F)F)nc3-c3cnc4[nH]ccc4c3)n2)CC1 [Example B-27, N-[1-(cyclopropylsulfonyl)piperidin-4-yl]-4-[1-(2,2-difluoroethyl)-3-(1H-pyrrolo[2,3-b]pyridin-5-yl)-1H-pyrazol-4-yl]pyrimidin-2-amine]
25 | 2790 |  | COc1nc(-c2nn(CC(F)F)cc2-c2ccnc(NC[C@H](C)O)n2)cnc1N [Example I-1, (2S)-1-({4-[3-(5-amino-6-methoxypyrazin-2-yl)-1-(2,2-difluoroethyl)-1H-pyrazol-4-yl]pyrimidin-2-yl}amino)propan-2-ol]
26 | 8.98 |  | CC(C)(CO)n1cc(-c2ccnc(N)n2)c(-c2cnc3[nH]cc(Cl)c3c2)n1 [Example E-6, 2-[4-(2-amino-pyrimidin-4-yl)-3-(3-chloro-1H-pyrrolo[2,3-b]pyridin-5-yl)-1H-pyrazol-1-yl]-2-methylpropan-1-ol]
27 | 19.9 |  | CC(C)(C#N)n1cc(-c2ccnc(NCCO)n2)c(-c2cnc3[nH]cc(Cl)c3c2)n1 [Example G-5, 2-[3-(3-chloro-1H-pyrollo[2,3-b]pyridin-5-yl)-4-{2-[(2-hydroxyethyl)amino]pyrimidin-4-yl}-1H-pyrazol-1-yl]-2-methylpropanenitrile]
28 | 13.3 |  | Cc1n[nH]c2ncc(-c3nn(C(C)(C)CO)cc3-c3ccnc(NCCC#N)n3)cc12 [Example B-94, 3-(4-(1-(1-hydroxy-2-methylpropan-2-yl)-3-(3-methyl-1H-pyrazolo[3,4-b]pyridin-5-yl)-1H-pyrazol-4-yl)pyrimidin-2-ylamino)propanenitrile]
29 | 427 |  | CC(C)n1cc(-c2ccnc3[nH]ccc23)c(-c2cnc3[nH]ccc3c2)n1 [Example H-3, 4-(1-isopropyl-3-(1H-pyrrolo[2,3-b]pyridin-5-yl)-1H-pyrazol-4-yl)-1H-pyrrolo[2,3-b]pyridine]
30 | 4.48 |  | N#CCCNc1nccc(-c2cn(CC(F)F)nc2-c2cnc3[nH]ccc3c2)n1 [Example B-33, 3-({4-[1-(2,2-difluoroethyl)-3-(1H-pyrrolo[2,3-b]pyridin-5-yl)-1H-pyrazol-4-yl]pyrimidin-2-yl}amino)propanenitrile]
31 | 1 |  | COc1nc(-c2nn(CC(F)F)cc2-c2ccnc(NCCC#N)n2)cnc1N [Example B-32, 3-({4-[3-(5-amino-6-methoxypyrazin-2-yl)-1-(2,2-difluoroethyl)-1H-pyrazol-4-yl]pyrimidin-2-yl}amino)propanenitrile]

Row | SMILES | IC50 (Table 3) [nM] | IC50 (Table 2) [nM]
32 | C[C@H](CO)n1cc(-c2ccnc(N)n2)c(-c2cnc3[nH]cc(Cl)c3c2)n1 [Example B-55, (2R)-2-[4-(2-aminopyrimidin-4-yl)-3-(3-chloro-1H-pyrrolo[2,3-b]pyridin-5-yl)-1H-pyrazol-1-yl]propan-1-ol] | 63.6 | 
